Literature values in patent US11534589B2, “Iontophoretic microneedle device” (LTS LOHMANN THERAPIE-SYSTEME AG, priority 2017, dated 2022).
Read-outs that look alike come from different tables or passages of the source.

Tests used:
[1] = maltose microneedles combined with iontophoresis, hairless rats

| SMILES | Increase in delivery [1] | Bioavailability (nasal spray) | Bioavailability (oral tablet) |
| --- | --- | --- | --- |
| CN(Cc1cnc2nc(N)nc(N)c2n1)c1ccc(C(=O)N[C@@H](CCC(=O)O)C(=O)O)cc1 [methotrexate] | 25 fold |  |  |
| CNS(=O)(=O)Cc1ccc2[nH]cc(CCN(C)C)c2c1.O=C(O)CCC(=O)O [sumatriptan, 3-[2-(dimethylamino)ethyl]-N-methyl-indole-5-methane-sulfonamide succinate (1:1)] |  | ≤ 14% | not more than 15% |
